Measurements taken from ChEMBL document CHEMBL1201862, “PubChem BioAssay data set” (2004).
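Test compounds were applied to cells in 96-well plates for 48 hours at 5 doses. Here, GI50 denotes the concentration required for 50% inhibition of growth.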 Active and inactive are the calls of the source. No stated cut-off is given here; in the data, active = GI50 up to about 1.1 µM and inactive = higher.

Columns and labels:
Experiment in all cases: DTP human tumour cell line panel, 48 h
SNB-75 = tested on: SNB-75
A549 = tested on: A549
OVCAR-8 = tested on: OVCAR-8
Hs-578T = tested on: Hs-578T
786-0 = tested on: 786-0
HOP-92 = tested on: HOP-92
HCT-116 = tested on: HCT-116
SK-MEL-5 = tested on: SK-MEL-5
CCRF-CEM = tested on: CCRF-CEM
MOLT-4 = tested on: MOLT-4
MDA-MB-435 = tested on: MDA-MB-435
OVCAR-3 = tested on: OVCAR-3
M14 = tested on: M14
PC-3 = tested on: PC-3
TK-10 = tested on: TK-10
T47D = tested on: T47D
SF-268 = tested on: SF-268
IGROV-1 = tested on: IGROV-1
UO-31 = tested on: UO-31
DU-145 = tested on: DU-145

Measured: GI50

O=C1NC(=S)N(c2cccc3ccccc23)C(=O)/C1=C/c1c[nH]c2ccccc12
inactive: SNB-75 2430 nM | A549 5120 nM | OVCAR-8 2390 nM | Hs-578T 3520 nM | 786-0 1710 nM | HOP-92 2130 nM | HCT-116 2010 nM | SK-MEL-5 1660 nM | CCRF-CEM 1760 nM | MOLT-4 1870 nM | MDA-MB-435 2340 nM | OVCAR-3 3380 nM | M14 1840 nM | PC-3 2360 nM | TK-10 2670 nM | T47D 3890 nM | SF-268 2640 nM | IGROV-1 2030 nM | UO-31 2150 nM | DU-145 1800 nM
